Reference: patent US20260042755A1, “GPR6 INVERSE AGONISTS” (MapLight Therapeutics, Inc., priority 2022, published 2026)

Columns and labels:
GPR3 = molecular target: T1, GPR3 (Homo sapiens, UniProt P46089); assay: GPR3 antagonist functional cAMP assay (LANCE Ultra cAMP TR-FRET, CHO cells stably expressing GPR3); format: cell-based
T1 construct: expressed in transfected cells; host or cells: CHO cells
How it was run: (§1)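 cAMP quantified by TR-FRET immunoassay after 45 min compound treatment at 37° C of CHO cells stably expressing GPR3 or GPR6, in PDE-inhibitor (Ro 20-1724, 150 μM) buffer with 0.1% BSA. Data scaled between DMSO (0%) and reference compounds (100%); antagonist IC50 by 4-parameter logistic fit.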

GPR6 = molecular target: T2, GPR6 (Homo sapiens, UniProt P46095); assay: GPR6 antagonist functional cAMP assay (LANCE Ultra cAMP TR-FRET, CHO cells stably expressing GPR6); format: cell-based
T2 construct: expressed in transfected cells; host or cells: CHO cells
How it was run: as §1

[1] = CHO cells stably expressing GPR3, cAMP assay (Example 24)
[2] = CHO cells stably expressing GPR6, cAMP assay (Example 24)

T2 sequence (P46095 whole entry): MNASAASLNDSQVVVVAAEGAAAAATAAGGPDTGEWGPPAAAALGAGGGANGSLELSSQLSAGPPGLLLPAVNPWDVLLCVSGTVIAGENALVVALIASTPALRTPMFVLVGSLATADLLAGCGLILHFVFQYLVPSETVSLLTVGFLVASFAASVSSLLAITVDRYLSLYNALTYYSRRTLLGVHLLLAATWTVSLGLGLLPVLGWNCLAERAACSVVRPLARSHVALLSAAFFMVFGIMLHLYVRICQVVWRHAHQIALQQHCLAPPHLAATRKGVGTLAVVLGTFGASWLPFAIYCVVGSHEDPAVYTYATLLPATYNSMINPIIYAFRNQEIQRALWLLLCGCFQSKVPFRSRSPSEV
T1 sequence (P46089 whole entry, species assumed): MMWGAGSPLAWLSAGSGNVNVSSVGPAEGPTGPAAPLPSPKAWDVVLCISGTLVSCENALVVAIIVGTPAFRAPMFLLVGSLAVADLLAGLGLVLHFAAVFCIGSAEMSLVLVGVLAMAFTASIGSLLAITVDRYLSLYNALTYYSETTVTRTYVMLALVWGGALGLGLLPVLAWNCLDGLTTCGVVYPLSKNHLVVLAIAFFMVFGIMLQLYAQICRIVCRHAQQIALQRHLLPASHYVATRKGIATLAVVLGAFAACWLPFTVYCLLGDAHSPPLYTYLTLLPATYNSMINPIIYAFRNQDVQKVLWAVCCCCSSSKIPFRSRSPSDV

Row | Structure (SMILES) | IC50 (GPR3; [1]) [µM] | IC50 (GPR6; [2]) [µM] | IC50 (GPR3; procedure of Example 24) [µM] | IC50 (GPR6; procedure of Example 24) [µM]
1 | COc1cncc(-c2nc3cnc(C)cc3nc2N2CCC(Oc3ccc(F)cc3F)CC2)n1 [Compound 230, 2-{2-[4-(2,4-difluorophenoxy)piperidin-1-yl]-7-methylpyrido[3,4-b]pyrazin-3-yl}-6-methoxypyrazine] | 1 to 30 | 1 to 30 | – | –
2 | CCOc1cncc(-c2nc3c(nc2N2CCC(Oc4ccc(F)cc4F)CC2)CCN(C(C)=O)C3)n1 [Compound 233, 1-{2-[4-(2,4-difluorophenoxy)piperidin-1-yl]-3-(6-ethoxypyrazin-2-yl)-5H,6H,7H,8H-pyrido[3,4-b]pyrazin-6-yl}ethan-1-one] | 1 to 30 | 1 to 30 | – | –
3 | CC(=O)N1CCc2nc(N3CCC(Oc4ccc(F)cc4F)CC3)c(C3=CC(O)CCC3)nc2C1 (stereo not shown) [Compound 234, 1-{2-[4-(2,4-difluorophenoxy)piperidin-1-yl]-3-(3-hydroxycyclohex-1-en-1-yl)-5H,6H,7H,8H-pyrido[3,4-b]pyrazin-6-yl}ethan-1-one] | 1 to 30 | 1 to 30 | – | –
4 | COc1cc(-c2nc3c(nc2N2CCC(Oc4ccc(F)cc4F)CC2)CCN(C(C)=O)C3)cnn1 [Compound 235, 1-{2-[4-(2,4-difluorophenoxy)piperidin-1-yl]-3-(6-methoxypyridazin-4-yl)-5H,6H,7H,8H-pyrido[3,4-b]pyrazin-6-yl}ethan-1-one] | 1 to 30 | 1 to 30 | – | –
5 | CC(=O)N1CCc2nc(N3CCC(Oc4ccc(F)cc4F)CC3)c(C3CCOCC3)nc2C1 [Compound 236, 1-{2-[4-(2,4-difluorophenoxy)piperidin-1-yl]-3-(oxan-4-yl)-5H,6H,7H,8H-pyrido[3,4-b]pyrazin-6-yl}ethan-1-one] | 1 to 30 | 1 to 30 | – | –
6 | CC(=O)N1CCc2nc(N3CCC(Oc4ccc(F)cc4F)CC3)c(C3CCCOC3)nc2C1 (stereo not shown) [Compound 237, 1-{2-[4-(2,4-difluorophenoxy)piperidin-1-yl]-3-(oxan-3-yl)-5H,6H,7H,8H-pyrido[3,4-b]pyrazin-6-yl}ethan-1-one] | 1 to 30 | 1 to 30 | – | –
7 | CC(=O)N1CCc2nc(N3CCC(Oc4ccc(F)cc4F)CC3)c(-c3cncc(OC(F)F)n3)nc2C1 [Compound 239, 1-{3-[6-(difluoromethoxy)pyrazin-2-yl]-2-[4-(2,4-difluorophenoxy)piperidin-1-yl]-5H,6H,7H,8H-pyrido[3,4-b]pyrazin-6-yl}ethan-1-one] | 1 to 30 | 1 to 30 | – | –
8 | Cn1cc(-c2nc3cnccc3nc2N2CCN(CC3CCCOC3)CC2)cn1 (stereo not shown) [Compound 241, 1-[3-(1-methyl-1H-pyrazol-4-yl)pyrido[3,4-b]pyrazin-2-yl]-4-[(oxan-3-yl)methyl]piperazine] | ≥ 30 | ≥ 30 | – | –
9 | Cn1cc(-c2nc3cnccc3nc2N2CCN(CC3CCOCC3)CC2)cn1 [Compound 242, 1-[3-(1-methyl-1H-pyrazol-4-yl)pyrido[3,4-b]pyrazin-2-yl]-4-[(oxan-4-yl)methyl]piperazine] | 1 to 30 | ≥ 30 | – | –
10 | CC(=O)N1CCc2nc(N3CCC(Oc4ccc(F)cc4F)CC3)c(-c3cncc(Cl)n3)nc2C1 [Compound 243] | 1 to 30 | 1 to 30 | – | –
11 | CC(=O)N1CCc2nc(N3CCC(Oc4ccc(F)cc4F)CC3)c(-c3cnn4c3COCC4)nc2C1 [Compound 245, 1-{2-[4-(2,4-difluorophenoxy)piperidin-1-yl]-3-{4H,6H,7H-pyrazolo [3,2-c][1,4]oxazin-3-yl}-5H,6H,7H,8H-pyrido[3,4-b]pyrazin-6-yl}ethan-1-one] | 1 to 30 | 0.1 to 1 | – | –
12 | Cn1cc(-c2nc3cnccc3nc2N2CCN(CC3CCCCO3)CC2)cn1 (stereo not shown) [Compound 246, 1-[3-(1-methyl-1H-pyrazol-4-yl)pyrido[3,4-b]pyrazin-2-yl]-4-[(oxan-2-yl)methyl]piperazine] | ≥ 30 | ≥ 30 | – | –
13 | COC1C=C(c2nc3c(nc2N2CCC(Oc4ccc(F)cc4F)CC2)CCN(C(C)=O)C3)CCC1 (stereo not shown) [Compound 247, 1-{2-[4-(2,4-difluorophenoxy)piperidin-1-yl]-3-(3-methoxycyclohex-1-en-1-yl)-5H,6H,7H,8H-pyrido[3,4-b]pyrazin-6-yl}ethan-1-one] | 1 to 30 | 0.1 to 1 | – | –
14 | COC1CCCC(c2nc3c(nc2N2CCC(Oc4ccc(F)cc4F)CC2)CCN(C(C)=O)C3)C1 (stereo not shown) [Compound 248, 1-{2-[4-(2,4-difluorophenoxy)piperidin-1-yl]-3-(3-methoxycyclohexyl)-5H,6H,7H,8H-pyrido[3,4-b]pyrazin-6-yl}ethan-1-one] | 1 to 30 | 1 to 30 | – | –
15 | Cn1cc(-c2nc3cnc(C(O)C4CC4)cc3nc2N2CCC(Oc3ccc(F)cc3F)CC2)cn1 (stereo not shown) [Compound 250, cyclopropyl(2-(4-(2,4-difluorophenoxy)piperidin-1-yl)-3-(1-methyl-1H-pyrazol-4-yl)pyrido[3,4-b]pyrazin-7-yl)methanol] | 1 to 30 | 1 to 30 | – | –
16 | COC(=O)c1cc2nc(N3CCC(Oc4ccc(F)cc4F)CC3)c(-c3cnn(C)c3)nc2cn1 [Compound 251, methyl 2-[4-(2,4-difluorophenoxy)piperidin-1-yl]-3-(1-methyl-1H-pyrazol-4-yl)pyrido[3,4-b]pyrazine-7-carboxylate] | 1 to 30 | 1 to 30 | – | –
17 | CC(=O)N1CCc2nc(N3CCN(Cc4ccccc4F)CC3)c(-c3cnn(C)c3)nc2C1 [Compound 252, 1-(2-{4-[(2-fluorophenyl)methyl]piperazin-1-yl}-3-(1-methyl-1H-pyrazol-4-yl)-5H,6H,7H,8H-pyrido[3,4-b]pyrazin-6-yl)ethan-1-one] | 1 to 30 | 0.1 to 1 | – | –
18 | CC(=O)N1CCc2nc(N3CCN(C(=O)c4ccc(F)cc4Cl)CC3)c(-c3cnn(C)c3)nc2C1 [Compound 253, 1-{2-[4-(2-chloro-4-fluorobenzoyl)piperazin-1-yl]-3-(1-methyl-1H-pyrazol-4-yl)-5H,6H,7H,8H-pyrido[3,4-b]pyrazin-6-yl}ethan-1-one] | 1 to 30 | 1 to 30 | – | –
19 | COc1ccc(C(=O)N2CCN(c3nc4c(nc3-c3cnn(C)c3)CN(C(C)=O)CC4)CC2)c(F)c1 [Compound 254, 1-{2-[4-(2-fluoro-4-methoxybenzoyl)piperazin-1-yl]-3-(1-methyl-1H-pyrazol-4-yl)-5H,6H,7H,8H-pyrido[3,4-b]pyrazin-6-yl}ethan-1-one] | 1 to 30 | 1 to 30 | – | –
20 | CC(=O)N1CCc2nc(N3CCN(C(=O)c4ccc(F)cc4)CC3)c(-c3cnn(C)c3)nc2C1 [Compound 255, 1-{2-[4-(4-fluorobenzoyl)piperazin-1-yl]-3-(1-methyl-1H-pyrazol-4-yl)-5H,6H,7H,8H-pyrido[3,4-b]pyrazin-6-yl}ethan-1-one] | 1 to 30 | 1 to 30 | – | –
21 | CC(=O)N1CCc2nc(N3CCN(Cc4cccc(F)c4)CC3)c(-c3cnn(C)c3)nc2C1 [Compound 256, 1-(2-{4-[(3-fluorophenyl)methyl]piperazin-1-yl}-3-(1-methyl-1H-pyrazol-4-yl)-5H,6H,7H,8H-pyrido[3,4-b]pyrazin-6-yl)ethan-1-one] | 1 to 30 | 1 to 30 | – | –
22 | CC(=O)N1CCc2nc(N3CCN(Cc4ccc(F)cc4)CC3)c(-c3cnn(C)c3)nc2C1 [Compound 257, 1-(2-{4-[(4-fluorophenyl)methyl]piperazin-1-yl}-3-(1-methyl-1H-pyrazol-4-yl)-5H,6H,7H,8H-pyrido[3,4-b]pyrazin-6-yl)ethan-1-one] | 1 to 30 | 1 to 30 | – | –
23 | CC(=O)N1CCc2nc(N3CCC(Oc4ccc(F)cc4F)CC3)c(C3CCCC(=O)N3)nc2C1 (stereo not shown) [Compound 258, 6-{6-acetyl-2-[4-(2,4-difluorophenoxy)piperidin-1-yl]-5H,6H,7H,8H-pyrido[3,4-b]pyrazin-3-yl}piperidin-2-one] | ≥ 30 | ≥ 30 | – | –
24 | Cn1cc(-c2nc3cnccc3nc2N2CCN(Cc3ccc(F)cc3F)CC2=O)cn1 [Compound 259, 4-(2,4-difluorobenzyl)-1-(3-(1-methyl-1H-pyrazol-4-yl)pyrido[3,4-b]pyrazin-2-yl)piperazin-2-one] | ≥ 30 | ≥ 30 | – | –
25 | CCn1cc(-c2nc3c(nc2N2CCC(Oc4ccc(F)cc4F)CC2)CCN(C(=O)OC(C)(C)C)C3)cn1 [Compound 260, tert-butyl 2-[4-(2,4-difluorophenoxy)piperidin-1-yl]-3-(1-ethyl-1H-pyrazol-4-yl)-5H,6H,7H,8H-pyrido[3,4-b]pyrazine-6-carboxylate] | 1 to 30 | 1 to 30 | – | –
26 | Cn1cc(-c2nc3cnc(C(O)C(C)(C)O)cc3nc2N2CCC(Oc3ccc(F)cc3F)CC2)cn1 (stereo not shown) [Compound 263, 1-(2-(4-(2,4-difluorophenoxy)piperidin-1-yl)-3-(1-methyl-1H-pyrazol-4-yl)pyrido[3,4-b]pyrazin-7-yl)-2-methylpropane-1,2-diol] | 1 to 30 | 0.1 to 1 | – | –
27 | CC(C)(O)C(O)c1cc2nc(N3CCN(Cc4ccc(F)cc4F)CC3)c(-c3cnn(C(F)F)c3)nc2cn1 (stereo not shown) [Compound 264, 1-{3-[1-(difluoromethyl)-1H-pyrazol-4-yl]-2-{4-[(2,4-difluorophenyl)methyl]piperazin-1-yl}pyrido[3,4-b]pyrazin-7-yl}-2-methylpropane-1,2-diol] | 1 to 30 | < 0.1 | – | –
28 | CC(=O)N1CCc2nc(N3CCC(Oc4ccc(F)cc4F)CC3)c(C3CCNCC3)nc2C1 [Compound 265, 1-{2-[4-(2,4-difluorophenoxy)piperidin-1-yl]-3-(piperidin-4-yl)-5H,6H,7H,8H-pyrido[3,4-b]pyrazin-6-yl}ethan-1-one] | 1 to 30 | 1 to 30 | – | –
29 | CCn1cc(-c2nc3c(nc2N2CCC(Oc4ccc(F)cc4F)CC2)CCN(S(=O)(=O)C(C)C)C3)cn1 [Compound 266, 4-(2,4-difluorophenoxy)-1-[3-(1-ethyl-1H-pyrazol-4-yl)-6-(propane-2-sulfonyl)-5H,6H,7H,8H-pyrido[3,4-b]pyrazin-2-yl]piperidine] | – | – | 1 to 30 | < 0.1
